Experimental data: ChEMBL document CHEMBL5096184, “Structure activity relationship in β-carboline derived anti-malarial agents” (Eur J Med Chem, 2021)
Values after ≈ are worked out from the molar mass of the structure shown. Values joined by “and” are separate entries in the source; they are usually repeats but may differ in a detail not shown here. Equal values may be shown once. Each block holds one molecule with its values, some of them ahead of it.

Tests used:
Plasmodium falciparum [1] = assay: Antimalarial activity against Plasmodium falciparum W2; type: functional, organism-based
Plasmodium = assay: Antimalarial activity against Plasmodium; type: functional, organism-based
Plasmodium falciparum [2] = assay: Antimalarial activity against Plasmodium falciparum D6; type: functional, organism-based
Leishmania donovani = assay: Antileishmanial activity against Leishmania donovani MHOM-ET-67/L82; type: functional, organism-based
Plasmodium falciparum [3] = assay: Antimalarial activity against Plasmodium falciparum K1; type: functional, organism-based
[4] = Cytotoxicity against rat L6 cells assessed as reduction in cell viability; type: toxicity, cell-based
[5] = Selectivity index, ratio of IC50 for rat L6 cells to IC50 for Plasmodium falciparum K1; type: toxicity; settings: L6 cells versus Plasmodium falciparum K1, read-out: Ratio IC50
Trypanosoma cruzi = assay: Antitrypanosomal activity against Trypanosoma cruzi Tulahuen C2C4; type: functional, organism-based
Trypanosoma brucei = assay: Antitrypanosomal activity against Trypanosoma brucei rhodesiense STIB 900; type: functional, organism-based
Plasmodium falciparum [6] = assay: Antiplasmodial activity against chloroquine sensitive Plasmodium falciparum K1; type: functional, organism-based
Plasmodium falciparum [7] = assay: Antiplasmodial activity against chloroquine sensitive Plasmodium falciparum FCCI-HN assessed as decrease in parasitemia level incubated for 24 hrs by Giemsa staining method; type: functional, organism-based
Plasmodium falciparum [8] = assay: Antimalarial activity against Plasmodium falciparum NF54 assessed as delayed-death phenotype incubated 72 to 96 hrs by SYBR green staining method; type: functional, organism-based
Plasmodium falciparum [9] = assay: Antimalarial activity against Plasmodium falciparum; type: functional, organism-based
Plasmodium falciparum [10] = assay: Antimalarial activity against chloroquine sensitive Plasmodium falciparum FcM29-Cameroon in human RBC; type: functional, organism-based; settings: Erythrocyte
Plasmodium falciparum [11] = assay: Antimalarial activity against Plasmodium falciparum incubated for 72 hrs by SYBR green I-based assay; type: functional, organism-based

Compound: Oc1cccc2c1[nH]c1c(C3=C[C@@]4(O)CC/C=C\CCCCN5CC[C@@H]3[C@]3(C[C@@H]6/C=C\CCCCN6[C@H]34)C5)nccc12
IC50 (Plasmodium falciparum [1]): 8 ng/mL (≈ 0.0142 µM)
IC50 (Plasmodium): 6.1 ng/mL (≈ 0.0108 µM)
IC50 (Plasmodium falciparum [2]): 6 ng/mL (≈ 0.0106 µM)

IC50 (Leishmania donovani): 17.7 µM
IC50 (Plasmodium falciparum [3]): 0.481 µM
IC50 (Trypanosoma cruzi): 7.5 µM
IC50 (Trypanosoma brucei): 4.1 µM
Compound: Brc1ccc2[nH]c3c[n+](Cc4cccc5ccccc45)ccc3c2c1
IC50 [4]: 5.1 µM
selectivity ratio [5]: 11

Compound: CC(=O)OC1=CO[C@@H](O[C@@H]2O[C@H](CO)[C@@H](O)[C@H](O)[C@H]2O)[C@H]2[C@@H]1C[C@@]13O[C@@H]2CN1CCC1c2ccccc2NC13 (stereo partly drawn)
IC50 (Plasmodium falciparum [6]): 6.77 µM

Compound: C/C=C(/CO[C@@H]1O[C@H](CO)[C@@H](O)[C@H](O)[C@H]1O)c1cc2n(c(=O)c1CO)CCc1c-2[nH]c2ccccc12
IC50 (Plasmodium falciparum [7]): 9.7 µM

Compound: O=c1c(O[C@@H]2OC[C@](O)(CO[C@@H]3O[C@H](CO)[C@@H](O)[C@H](O)[C@H]3O)[C@H](O)[C@H]2O)cc2nccc3c4ccccc4n1c23
IC50 (Plasmodium falciparum [6]): 25 µM

IC50 (Leishmania donovani): 46.4 µM
IC50 (Plasmodium falciparum [3]): 0.502 µM
IC50 (Trypanosoma cruzi): 7.9 µM
IC50 (Trypanosoma brucei): 4.4 µM
Compound: Brc1cccc2c1[nH]c1c[n+](Cc3cccc4ccccc34)ccc12
IC50 [4]: 3.7 µM
selectivity ratio [5]: 7

Compound: C/C=C1/COC(=O)c2c1cc1n(c2=O)CCc2c-1[nH]c1c(O[C@@H]3O[C@H](CO)[C@@H](O)[C@H](O)[C@H]3O)cccc21
IC50 (Plasmodium falciparum [7]): 42.1 µM

Compound: O=C(O)C1Cc2c([nH]c3ccccc23)C(c2ccc(Cl)cc2Cl)N1 (stereo not drawn)
IC50 (Plasmodium falciparum [8]): 210 µM

Compound: CC1(C)Cc2c([nH]c3ccccc23)C2(N1)C(=O)Nc1ccc(Cl)cc12 (racemic)
IC50 (Plasmodium falciparum [9]): 0.0027 µM

Compound: COC(=O)C1=CO[C@@H](C)[C@@H]2CN3CCc4c([nH]c5ccc(OC)cc45)[C@@H]3C[C@H]12 [ARICINE]
IC50 (Plasmodium falciparum [10]): 0.3 µg/mL and 690 nM

EC50 (Plasmodium falciparum [11]): > 50 µM
Compound: COC(=O)[C@@H]1[C@H]2C[C@H]3c4[nH]c5ccccc5c4CCN3C[C@@H]2CC[C@@H]1O [YOHIMBINE]
